Experiments:
CAR (NR1I3) [1] = target: T1, CAR (NR1I3) (Homo sapiens, UniProt Q14994); assay: ATG_CAR_TRANS: Factorial reporter gene assay (HepG2); assay type: cell-based; parameters: endogenous in cells; host or cells: HepG2; conditions: HepG2; scale not given, looks like -log10 of molar active concentration; 0 = no activity
T1 sequence (Q14994 1-352): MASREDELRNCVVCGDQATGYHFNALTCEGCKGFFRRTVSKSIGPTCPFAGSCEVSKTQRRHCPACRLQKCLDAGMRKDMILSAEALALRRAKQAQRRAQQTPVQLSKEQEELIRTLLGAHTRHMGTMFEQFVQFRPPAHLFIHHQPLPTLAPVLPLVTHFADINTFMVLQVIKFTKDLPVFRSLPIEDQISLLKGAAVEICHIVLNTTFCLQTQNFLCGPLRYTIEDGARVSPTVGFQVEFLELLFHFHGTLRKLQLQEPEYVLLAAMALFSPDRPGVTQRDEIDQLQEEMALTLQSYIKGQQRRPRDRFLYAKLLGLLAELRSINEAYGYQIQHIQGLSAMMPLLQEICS
Procedure: (§1) A multiple reporter transcription unit (MRTU) library consisting of 48 transcription factor binding sites was transfected into the HepG2 human liver hepatoma cell line. In addition to the cis-acting reporter genes (CIS), a modification of the approach was used to generate a trans-system (TRANS) with a mammalian one-hybrid assay consisting of an additional 25 MRTU library reporting the activity of nuclear receptor super-family members. […] These assays were performed by Attagene Inc. (Morrisville NC) under contract to EPA.
(§2) In addition to the cis-acting reporter genes (CIS), a modification of the approach was used to generate a trans-system (TRANS) with a mammalian one-hybrid assay consisting of an additional 25 MRTU library reporting the activity of nuclear receptor super-family members. […] Chemicals were then tested in the CIS and TRANS assays at seven concentrations starting at the MTC and followed by three-fold serial dilutions. These assays were performed by Attagene Inc. (Morrisville NC) under contract to EPA. Detailed description of the methods, data and analysis methods for this dataset will be presented in a separate publication.

[2] = target: T2, ESRRG (estrogen-related receptor gamma) (Homo sapiens, UniProt P62508); assay: ATG_ERRg_TRANS: Factorial reporter gene assay (HepG2); assay type: cell-based; parameters: scale not given here; conditions: HepG2; scale not given, looks like -log10 of molar active concentration; 0 = no activity
T2 construct: expressed in transfected cells; host or cells: HepG2
T2 sequence (P62508 1-458): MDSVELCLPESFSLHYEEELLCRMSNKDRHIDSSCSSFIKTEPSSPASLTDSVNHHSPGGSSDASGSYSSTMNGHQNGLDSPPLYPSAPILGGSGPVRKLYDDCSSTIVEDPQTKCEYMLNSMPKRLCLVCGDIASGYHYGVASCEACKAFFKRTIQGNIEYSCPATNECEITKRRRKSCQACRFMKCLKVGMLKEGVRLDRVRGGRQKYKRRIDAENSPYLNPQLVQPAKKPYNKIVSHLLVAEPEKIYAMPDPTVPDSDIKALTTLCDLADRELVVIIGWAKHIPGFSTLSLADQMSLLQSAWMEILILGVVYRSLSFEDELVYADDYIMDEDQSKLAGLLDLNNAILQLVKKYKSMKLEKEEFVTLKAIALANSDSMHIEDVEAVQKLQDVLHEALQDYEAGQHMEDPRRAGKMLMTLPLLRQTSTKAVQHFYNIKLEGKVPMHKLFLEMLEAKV
Procedure: as §1, §2

[3] = target: T3, ESRRA (estrogen-related receptor alpha) (Homo sapiens, UniProt P11474); assay: ATG_ERRa_TRANS: Factorial reporter gene assay (HepG2); assay type: cell-based; conditions: scale not given, looks like -log10 of molar active concentration, 0 = no activity
T3 construct: expressed in transfected cells; host or cells: HepG2
T3 sequence (P11474 1-423): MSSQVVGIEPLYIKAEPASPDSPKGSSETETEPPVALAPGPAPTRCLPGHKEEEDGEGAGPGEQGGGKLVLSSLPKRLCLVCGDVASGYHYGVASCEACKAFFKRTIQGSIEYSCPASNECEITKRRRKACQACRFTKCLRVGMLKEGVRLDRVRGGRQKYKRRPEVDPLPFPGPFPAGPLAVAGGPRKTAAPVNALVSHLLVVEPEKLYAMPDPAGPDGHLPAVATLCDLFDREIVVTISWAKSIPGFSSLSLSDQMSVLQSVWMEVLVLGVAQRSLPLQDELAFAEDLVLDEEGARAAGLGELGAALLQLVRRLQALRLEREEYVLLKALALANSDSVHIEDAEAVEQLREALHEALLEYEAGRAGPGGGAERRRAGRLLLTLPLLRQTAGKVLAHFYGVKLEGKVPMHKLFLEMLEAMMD
Procedure: as §1, §2

FXR (NR1H4) = target: T4, FXR (NR1H4) (Homo sapiens, UniProt Q96RI1); assay: NVS_NR_hFXR: Human FXR CDCA (cell-free HTS); assay type: binding; conditions: scale not given, looks like -log10 of molar active concentration, 0 = no activity
T4 sequence (Q96RI1 1-486): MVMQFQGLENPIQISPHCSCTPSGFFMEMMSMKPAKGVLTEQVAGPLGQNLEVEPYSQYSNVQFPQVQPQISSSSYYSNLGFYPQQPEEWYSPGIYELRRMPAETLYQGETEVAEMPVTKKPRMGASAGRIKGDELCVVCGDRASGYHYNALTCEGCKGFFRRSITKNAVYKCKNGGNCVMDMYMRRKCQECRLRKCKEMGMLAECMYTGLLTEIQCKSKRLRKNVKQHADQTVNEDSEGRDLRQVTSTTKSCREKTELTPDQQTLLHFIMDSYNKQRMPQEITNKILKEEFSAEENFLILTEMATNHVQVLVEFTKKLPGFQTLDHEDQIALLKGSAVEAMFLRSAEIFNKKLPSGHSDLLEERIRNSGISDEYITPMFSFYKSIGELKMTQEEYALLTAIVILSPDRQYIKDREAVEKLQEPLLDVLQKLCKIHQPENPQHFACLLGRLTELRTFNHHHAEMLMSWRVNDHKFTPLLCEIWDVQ
Source text: These are a collection of biochemical assays measuring binding constants and enzyme inhibition values. Chemicals were initially screened at a single concentration in duplicate wells at a concentration of 10 [drawing 63] M for cytochrome P-450 assays and 25 [drawing 64] M for all others. […] These assays were run by Caliper Life Sciences (Hanover, MD) under contract to EPA. Short assay descriptions are available at: http://www.caliperls.com/products/contract-research/in-vitro/.
Cell-free HTS Assays: A collection of biochemical assays measuring binding constants and enzyme inhibition values. […] These assays were run by Caliper Life Sciences (Hanover, MD) under contract to EPA. Short assay descriptions are available at http://www.caliperls.com/products/contract-research/in-vitro/. Values for all endpoints were imported into GeneData Screener (Basel, Switzerland) and normalised to solvent controls from the same plate as the tested compounds and expressed as percent of neutral control. Concentration-response curves were fit in GeneData Screener (Basel, Switzerland) Condeseo module using the Hill equation and AC50 values were determined. […] Detailed description of the methods, data and analysis methods for this dataset are described in a separate publication.

CAR (NR1I3) [4] = target: T1, CAR (NR1I3); assay: ATG_PBREM_CIS: Factorial reporter gene assay (HepG2); assay type: cell-based; parameters: endogenous in cells; host or cells: HepG2; scale not given here; conditions: HepG2; scale not given, looks like -log10 of molar active concentration; 0 = no activity
In short: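 Seven concentrations per chemical, three-fold dilutions down from the MTC, were tested in HepG2 hepatoma cells. Those cells carried a multiple reporter transcription unit library, read either as cis transcription-factor-site reporters or as a trans mammalian one-hybrid panel for nuclear receptors.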

Rat Liver = conditions: rat chronic study, liver, preneoplastic lesion; coded 6 / 0, code not explained here; ref ToxRefDB; cited from earlier work

OB(O)O [r41]
0: ATG_CAR_TRANS (CAR (NR1I3) [1]) | ATG_ERRg_TRANS [2] | ATG_ERRa_TRANS [3] | NVS_NR_hFXR (FXR (NR1H4)) | ATG_PBREM_CIS (CAR (NR1I3) [4]) | CHR_Rat_Liver_2_PreneoplasticLesion (Rat Liver)

CCC(C)n1c(=O)[nH]c(C)c(Br)c1=O (stereo not drawn) [r43]
0: ATG_CAR_TRANS (CAR (NR1I3) [1]) | ATG_ERRg_TRANS [2] | ATG_ERRa_TRANS [3] | NVS_NR_hFXR (FXR (NR1H4)) | ATG_PBREM_CIS (CAR (NR1I3) [4]) | CHR_Rat_Liver_2_PreneoplasticLesion (Rat Liver)

N#Cc1cc(Br)c(O)c(Br)c1 [r44]
0: ATG_CAR_TRANS (CAR (NR1I3) [1]) | ATG_ERRg_TRANS [2] | ATG_ERRa_TRANS [3] | NVS_NR_hFXR (FXR (NR1H4)) | ATG_PBREM_CIS (CAR (NR1I3) [4]) | CHR_Rat_Liver_2_PreneoplasticLesion (Rat Liver)

CCCCOCN(C(=O)CCl)c1c(CC)cccc1CC [r46]
0: ATG_CAR_TRANS (CAR (NR1I3) [1]) | ATG_ERRg_TRANS [2] | ATG_ERRa_TRANS [3] | NVS_NR_hFXR (FXR (NR1H4)) | ATG_PBREM_CIS (CAR (NR1I3) [4]) | CHR_Rat_Liver_2_PreneoplasticLesion (Rat Liver)
